Measured values from US9458118B2, “Sodium channel modulators for the treatment of pain and diabetes” (CHROMOCELL CORPORATION, priority 2013, dated 2016).

System: rats
Experiment: Acetic acid writhing model in rats
Format: in vivo, rat
Settings: doses of 10 to 30 mg/kg, intraperitoneal route
Experimental: The Acetic Acid Writhing Model is associated with visceral pain (abdominal pain, such as stomach pain, and pain caused by, for example, bile duct congestion and kidney stones). A writhing test assesses acute peritoneovisceral pain.
After acclimation of 2-3 days, a test compound, positive control or vehicle control was administered by intraperitoneal injection (i.p.) or by oral gavage 15-30 minutes prior to administration of acetic acid. The time of administration of test compound was recorded. For mice: Method A: 0.6% Acetic acid solution in saline was injected i.p. in a volume of 10 ml/kg; Method B: 1.2% Acetic acid solution in saline was injected i.p. in a volume of 5 ml/kg. For rats: 4% acetic acid in saline was injected i.p in a volume of 2 ml/kg at T=0 minutes. Each animal was placed in a clear plastic cage. At T=5 minutes, the number of writhing movements was counted over a 45 minute period. Alternatively, the writhing movements were counted over a 5-minute period and repeated every 5 minutes, starting at T=5 minutes over a 45-minute period.
For each compound tested, the individual score was obtained by calculating the accumulated writhing movements for the time period studied. […]

In the case of O=C(O)CNC(=O)c1cc(-c2cc(Cl)ccc2Oc2cc(F)c(S(=O)(=O)Nc3ncns3)cc2Cl)ccn1 [Compound 2, 2-(4-(2-(4-(N-(1,2,4-thiadiazol-5-yl)sulfamoyl)-2-chloro-5-fluorophenoxy)-5-chlorophenyl)picolinamido)acetic acid], the “reduction in pain (writhing) relative to vehicle control” value is reported as 48-58%.
